Laboratory results taken from US20110046147A1, “17BETA-HYDROXYSTEROID DEHYDROGENASE TYPE 1 INHIBITORS FOR THE TREATMENT OF HORMONE-RELATED DISEASES” (UNIVERSITAT DES SAARLANDES, priority 2007, published 2011).

Columns and labels:
[1] = in vitro; settings: rat, microsomes, pH 7.4
Procedure: The reaction is started by adding 20 μl of the compound to be tested in 20% AcCN to the microsome/buffer mixture preincubated at 37° C. After 0, 15, 30 and 60 minutes, 200 μl of sample solution is withdrawn and subjected to AcCN precipitation. The isolation of the compounds is effected by adding 200 μl of AcCN that contains the internal standard (1 μM) to 200 μl of sample solution and calibration standard. After shaking for 10 s and centrifugation at 4000 g, an aliquot of the supernatant is subjected to LC-MS/MS. Two controls are included: a positive control with 7-ethoxycoumarin as a reference to verify the microsomal enzyme activity, and a negative control in which microsomes are used that were heated for 25 minutes without a regenerating system, in order to ensure that the loss of substance is actually due to metabolization.
The amount of compound in a sample is expressed as the percent fraction of the compound remaining as compared to time t=0 (100%). The percent fraction is plotted versus time.

[2] = target: T1, CYP3A4 (Homo sapiens, UniProt P08684); experiment: Inhibition of hepatic CYP enzymes: CYP3A4; assay type: biochemical; settings: read-out: CYP3A4 IC50 (mean ± SD)
T1 construct: purchased Becton Dickinson GmbH (Heidelberg)
T1 sequence (P08684 whole entry): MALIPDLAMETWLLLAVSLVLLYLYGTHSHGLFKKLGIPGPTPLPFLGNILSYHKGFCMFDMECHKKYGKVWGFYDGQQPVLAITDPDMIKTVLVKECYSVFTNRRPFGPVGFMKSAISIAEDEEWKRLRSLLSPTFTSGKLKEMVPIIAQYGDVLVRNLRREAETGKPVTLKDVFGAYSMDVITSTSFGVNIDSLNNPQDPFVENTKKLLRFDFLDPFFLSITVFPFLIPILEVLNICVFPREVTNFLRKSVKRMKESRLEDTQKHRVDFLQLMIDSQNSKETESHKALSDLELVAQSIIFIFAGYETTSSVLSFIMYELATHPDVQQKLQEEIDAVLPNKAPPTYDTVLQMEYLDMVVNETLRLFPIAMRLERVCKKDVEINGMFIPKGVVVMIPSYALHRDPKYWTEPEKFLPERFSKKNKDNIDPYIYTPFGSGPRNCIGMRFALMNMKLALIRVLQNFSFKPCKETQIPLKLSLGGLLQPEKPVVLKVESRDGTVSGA
Excerpt: (§1) Drug interactions (inhibition of hepatic CYP enzymes): The inhibition of six human hepatic cytochrome P450 enzymes by selected compounds was examined by means of the kit supplied by Becton Dickinson GmbH (Heidelberg).

[3] = target: T2, CYP2C9 (Homo sapiens, UniProt P11712); experiment: Inhibition of hepatic CYP enzymes: CYP2C9; assay type: biochemical; settings: read-out: CYP2C9 IC50 (mean ± SD)
T2 construct: purchased Becton Dickinson GmbH (Heidelberg)
T2 sequence (P11712 whole entry): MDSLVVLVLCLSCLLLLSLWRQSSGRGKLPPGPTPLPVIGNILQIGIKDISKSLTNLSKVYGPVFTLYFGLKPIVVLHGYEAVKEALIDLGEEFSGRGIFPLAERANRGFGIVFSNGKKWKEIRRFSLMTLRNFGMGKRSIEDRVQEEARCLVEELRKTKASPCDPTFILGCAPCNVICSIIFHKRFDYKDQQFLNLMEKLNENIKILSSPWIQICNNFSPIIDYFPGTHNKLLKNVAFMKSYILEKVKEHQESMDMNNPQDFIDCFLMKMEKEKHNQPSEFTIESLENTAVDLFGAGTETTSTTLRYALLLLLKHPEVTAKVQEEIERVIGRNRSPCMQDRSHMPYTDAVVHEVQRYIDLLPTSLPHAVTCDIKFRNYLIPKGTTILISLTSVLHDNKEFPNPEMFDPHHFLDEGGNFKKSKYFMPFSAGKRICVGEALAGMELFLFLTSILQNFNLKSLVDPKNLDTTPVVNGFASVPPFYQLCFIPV
Excerpt: as §1

[4] = CaCo2 transport assay; assay type: in vitro ADME; settings: human, Caco-2; 50 μM in donor compartment; read-out: Papp [cm/sec ± rel. SD]
[5] = target: T3, 17β-HSD2 (Homo sapiens, UniProt P37059); experiment: Inhibition of 17β-HSD2 (estradiol to estrone, radio-HPLC); assay type: biochemical; settings: human placenta microsome fraction, 500 nM estradiol, NAD+ 1500 μM
T3 construct: from tissue; host or cells: human placenta, microsome fraction
T3 sequence (P37059 1-387): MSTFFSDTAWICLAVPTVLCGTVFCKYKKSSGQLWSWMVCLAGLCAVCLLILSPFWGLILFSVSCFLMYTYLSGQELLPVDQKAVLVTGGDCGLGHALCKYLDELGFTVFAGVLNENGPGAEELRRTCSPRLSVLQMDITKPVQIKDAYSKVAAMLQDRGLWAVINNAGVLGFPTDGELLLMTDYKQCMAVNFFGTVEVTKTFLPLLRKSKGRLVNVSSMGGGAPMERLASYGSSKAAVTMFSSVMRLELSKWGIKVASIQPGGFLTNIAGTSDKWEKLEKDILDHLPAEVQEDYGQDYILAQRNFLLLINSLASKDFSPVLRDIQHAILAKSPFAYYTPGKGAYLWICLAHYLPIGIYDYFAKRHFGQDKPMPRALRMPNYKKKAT

| Compound | half-life [1] [min] | IC50 [2] [nM] | IC50 [3] [nM] | Papp at 180 min, 50 μM [4] [×10⁻⁶ cm/s] | IC50 [5] [nM] | Half life [1] [min] |
| --- | --- | --- | --- | --- | --- | --- |
| Oc1ccc(-c2ccsc2-c2cccc(O)c2)cc1 [Compound 28, 3-[3-(4-Hydroxyphenyl)-2-thienyl]phenol] | 10.6 | 7360 ± 490 | 2980 ± 20 | 11.5 | 1800 |  |
| Oc1cccc(-c2ccc(-c3cccc(O)c3)cc2)c1 [Compound 42, [1,1′,4′,1″]Terphenyl-3,3′-diol] |  | 2130 ± 130 | 1940 ± 100 |  | 2300 | 22.7 |
